System: Her2 receptor expression at the surface of SKBr3 cells
Test: phenotypic SKBr3/HER2 cell test (Her2 surface expression by flow cytometry)
Type: cell-based
Conditions: Homo sapiens, SK-BR-3, 24 h incubation, inhibition of Her2 expression
Description: The cellular activity of the compounds can in particular be evaluated by means of the phenotypic “SKBr3/HER2” cell test described below:
The SKBr3 […] adenocarcinoma cells, overexpressing the Her2 tyrosine kinase receptor, originate from the ATCC (HTB-30) and are cultured in McCoy's 5A medium supplemented with 10% FBS and 1% L-glutamine.
The cells are seeded in 12-well plates at a proportion of 125 000 cells per well in 1 ml of complete medium. The following day, the products are added at varying concentrations. After incubation for 24 h, the cells are trypsinized, washed with PBS and incubated with 100 ng of anti-Her2 antibody coupled to PE (Phycoerythrin) (BD 340552) for 30 minutes at 4° C. in the dark. The fluorescence due to the expression of the Her2 receptor at the surface of the cells is then read using a FACS Calibur flow cytometer (Becton-Dickinson). The percentage inhibition of Her2 expression as a function of the concentrations of product tested is fitted by the nonlinear regression technique (XLfit, equation 205) in order to measure an IC50 for each product.

Row | IC50 | SMILES
1 | 1000 to 10000 nM | COCCCOc1cc(-n2c3ccccc3c3c(-c4nc5ccc(F)cc5[nH]4)cccc32)ccc1C(N)=O [Example 60, 4-[4-(6-fluoro-1H-benzimidazol-2-yl)-9H-carbazol-9-yl]-2-(3-methoxypropoxy)benzamide]
2 | < 1000 nM | NC(=O)c1ccc(-n2c3ccccc3c3c(-c4cnc5ccccc5c4)cccc32)cc1NCCc1ccccn1 [Example 80, 4-[4-(quinolin-3-yl)-9H-carbazol-9-yl]-2-[2-(pyridin-2-yl)ethylamino]benzamide]
3 | < 1000 nM | NC(=O)c1ccc(-n2c3ccccc3c3c(-c4cnc5ccccc5c4)cccc32)cc1NCc1ccccn1 [Example 86, 2-[(pyridin-2-ylmethyl)amino]-4-[4-(quinolin-3-yl)-9H-carbazol-9-yl]benzamide]
4 | < 1000 nM | NC(=O)c1ccc(-n2c3ccccc3c3c(-c4cnc5ccccc5c4)cccc32)cc1N[C@H]1CCCC[C@@H]1CO (racemic) [Example 100, 2-[1(R,S),2(R,S)-2-hydroxymethyl-cyclohexyl-1-amino]-4-[4-(quinolin-3-2-yl)-9H-carbazol-9-yl]benzamide]
5 | < 1000 nM | NC(=O)c1ncc(-n2c3ccccc3c3c(-c4nc5ccc(F)cc5[nH]4)cccc32)cc1NC1CCOCC1 [Example 136]
6 | < 1000 nM | CC1(C)CC(Nc2cc(-n3c4ccccc4c4c(-c5cnc6ccccc6c5)cccc43)ccc2C(N)=O)CC(C)(C)N1 [Example 84, 4-[4-(quinolin-3-yl)-9H-carbazol-9-yl]-2-(2,2,6,6-tetramethyl-1H-piperidin-4-ylamino]benzamide]
7 | < 1000 nM | NC(=O)c1ccc(-n2c3ccccc3c3c(-c4cnc5ccccc5c4)cccc32)cc1NCc1cocn1 [Example 94, 2-[(oxazol-4-ylmethyl)amino]-4-[4-(quinolin-3-yl)-9H-carbazol-9-yl]benzamide]
8 | < 1000 nM | NC(=O)c1ncc(-n2c3ccccc3c3c(-c4cnc5ccccc5c4)cccc32)cc1NC1CCOCC1 [Example 116]
9 | < 1000 nM | NC(=O)c1ccc(-n2c3ccccc3c3c(-c4nc5ccc(F)cc5[nH]4)cccc32)cc1N[C@H]1CCCC[C@H]1CO (racemic) [Example 96]
10 | < 1000 nM | NC(=O)c1ncc(-n2c3ccccc3c3c(-c4cnc5ccccc5c4)cccc32)cc1NCCF [Example 129, 3-(2-fluoroethylamino)-5-[4-(quinolin-3-yl)-9H-carbazol-9-yl]pyridine-2-carboxamide]
11 | < 1000 nM | NC(=O)c1ccc(-n2c3ccccc3c3c(-c4nc5ccc(F)cc5[nH]4)cccc32)cc1NC1CCCC(O)C1 [Example 89, 4-[4-(6-fluoro-1H-benzimidazol-2-yl)-9H-carbazol-9-yl]-2-(3(R,S)-hydroxycyclohexyl-1(R,S)-amino)benzamide]
12 | < 1000 nM | NC(=O)c1ccc(-n2c3ccccc3c3c(-c4nc5cc(F)ccc5[nH]4)cccc32)cc1N[C@H]1CCCC[C@@H]1CO (single isomer, unassigned) [Example 130]
13 | < 1000 nM | NC(=O)c1ccc(-n2c3ccccc3c3c(-c4nc5ccc(F)cc5[nH]4)cccc32)cc1NCCc1cccnc1 [Example 106, 4-[4-(6-fluoro-1H-benzimidazol-2-yl)-9H-carbazol-9-yl]-2-[2-(pyridin-3-yl)-ethylamino]benzamide]
14 | < 1000 nM | N#Cc1ccc(-c2cccc3c2c2ccccc2n3-c2ccc(C(N)=O)c(NCCF)c2)cn1 [Example 134, 4-[4-(6-cyanopyridin-3-yl)-9H-carbazol-9-yl]-2-[(2-fluoroethyl)amino]benzamide]
15 | 1000 to 10000 nM | CC(C)(C)OC(=O)N1CCC(Nc2cc(-n3c4ccccc4c4c(-c5cnc6ccccc6c5)cccc43)ccc2C(N)=O)CC1 [Example 123]
16 | < 1000 nM | CC(C)(O)CNc1cc(-n2c3ccccc3c3c(-c4nc5ccc(F)cc5[nH]4)cccc32)ccc1C(N)=O [Example 90, 4-[4-(6-fluoro-1H-benzimidazol-2-yl)-9H-carbazol-9-yl]-2-(2-hydroxy-2-methylpropylamino)benzamide]
17 | < 1000 nM | NCC(=O)O[C@H]1CC[C@H](Nc2cc(-n3c4ccccc4c4c(-c5cnc6ccccc6c5)cccc43)cnc2C(N)=O)CC1 [Example 128, aminoacetic acid 4-trans-{[2-carbamoyl-5-(quinolin-3-yl)-9H-carbazol-9-yl]pyridin-3-ylamino}cyclohexyl ester]

Row | IC50 | SMILES
18 | < 1000 nM | Cn1cnc(CCNc2cc(-n3c4ccccc4c4c(-c5nc6ccc(F)cc6[nH]5)cccc43)ccc2C(N)=O)c1 [Example 117, 4-[4-(6-fluoro-1H-benzimidazol-2-yl)-9H-carbazol-9-yl]-2-[(1-methyl-1H-imidazol-4-yl)ethylamino]benzamide]
19 | < 1000 nM | NC(=O)c1ccc(-n2c3ccccc3c3c(-c4cnc5ccccc5c4)cccc32)cc1NCCF [Example 77, 2-(2-fluoroethylamino)-4-[4-(quinolin-3-yl)-9H-carbazol-9-yl]benzamide]
20 | < 1000 nM | CN1CCC(O)(CNc2cc(-n3c4ccccc4c4c(-c5cnc6ccccc6c5)cccc43)ccc2C(N)=O)CC1 [Example 103, 2-[(4-hydroxy-1-methylpiperidin-4-ylmethyl)-amino]-[4-(quinolin-3-yl)-9H-carbazol-9-yl]benzamide]
21 | < 1000 nM | CC(C)(O)CNc1cc(-n2c3ccccc3c3c(-c4cnc5ccccc5c4)cccc32)cnc1C(N)=O [Example 139]
22 | < 1000 nM | CC(C)(O)CNc1cc(-n2c3ccccc3c3c(-c4cnc5ccccc5c4)cccc32)ccc1C(N)=O [Example 91, (2-hydroxy-2-methylpropylamino)-4-[4-(quinolin-3-yl)-9H-carbazol-9-yl]-2-benzamide]
23 | < 1000 nM | NC(=O)c1ccc(-n2c3ccccc3c3c(-c4cnc5ccccc5c4)cccc32)cc1NCCCF [Example 76, 2-(3-fluoropropylamino)-4-[4-(quinolin-3-yl)-9H-carbazol-9-yl]benzamide]
24 | 1000 to 10000 nM | CN1CCC(O)(CNc2cc(-n3c4ccccc4c4c(-c5nc6ccc(F)cc6[nH]5)cccc43)ccc2C(N)=O)CC1 [Example 102, [4-(6-fluoro-1H-benzimidazol-2-yl)-9H-carbazol-9-yl]-2-[(4-hydroxy-1-methylpiperidin-4-ylmethyl)amino]benzamide]
25 | < 1000 nM | NC(=O)c1ccc(-n2c3ccccc3c3c(-c4cnc5ccccc5c4)cccc32)cc1N[C@H]1CCCC[C@H]1CO (racemic) [Example 101, 2-[1(S,R),2(R,S)-2-hydroxymethylcyclohexyl-1-amino]-4-[4-(quinolin-3-2-yl)-9H-carbazol-9-yl]benzamide]
26 | < 1000 nM | CN(C)CC(=O)O[C@H]1CC[C@H](Nc2cc(-n3c4ccccc4c4c(-c5nc6ccc(F)cc6[nH]5)cccc43)ccc2C(N)=O)CC1 [Example 140, dimethylaminoacetic acid 4-trans-{2-carbamoyl-5-[4(6-fluoro-1H-benzimidazol-2-yl)carbazol-9-yl]phenylamino}cyclohexyl ester]
27 | < 1000 nM | NC(=O)c1ccc(-n2c3ccccc3c3c(-c4nc5ccc(F)cc5[nH]4)cccc32)cc1NCCC1(O)CCCC1 [Example 71, 4-[4-(6-fluoro-1H-benzimidazol-2-yl)-9H-carbazol-9-yl]-2-[2-(1-hydroxycyclopentyl)ethylamino]benzamide]
28 | < 1000 nM | NC(=O)c1ccc(-n2c3ccccc3c3c(-c4nc5ccc(F)cc5[nH]4)cccc32)cc1NCCn1ccnc1 [Example 82, 4-[4-(6-fluoro-1H-benzimidazol-2-yl)-9H-carbazol-9-yl]-2-[2-(1H-imidazol-1-yl]ethylamino]benzamide]
29 | < 1000 nM | Cn1cnc(CNc2cc(-n3c4ccccc4c4c(-c5nc6ccc(F)cc6[nH]5)cccc43)ccc2C(N)=O)c1 [Example 110, 4-[4-(6-fluoro-1H-benzimidazol-2-yl)-9H-carbazol-9-yl]-2-[(1-methyl-1H-imidazol-4-yl)methylamino]benzamide]
30 | < 1000 nM | NC(=O)c1ccc(-n2c3ccccc3c3c(-c4nc5ccc(F)cc5[nH]4)cccc32)cc1NCCCF [Example 75, 4-[4-(6-fluoro-1H-benzimidazol-2-yl)-9H-carbazol-9-yl]-2-(3-fluoropropylamino)benzamide]
31 | < 1000 nM | CN1C(C)(C)CC(Nc2cc(-n3c4ccccc4c4c(-c5cnc6ccccc6c5)cccc43)ccc2C(N)=O)CC1(C)C [Example 88, (1,2,2,6,6-pentamethyl-1H-piperidin-4-ylamino]-4-[4-(quinolin-3-yl)-9H-carbazol-9-yl]-2-benzamide]
32 | < 1000 nM | NC(=O)c1ccc(-n2c3ccccc3c3c(-c4nc5ccc(F)cc5[nH]4)cccc32)cc1NCC1(O)CC1 [Example 114, 4-[4-(6-fluoro-1H-benzimidazol-2-yl)-9H-carbazol-9-yl]-2-[(1-hydroxycyclopropan-1-yl)methylamino]benzamide]
33 | < 1000 nM | NC(=O)c1ccc(-n2c3ccccc3c3c(-c4nc5ccc(F)cc5[nH]4)cccc32)cc1N[C@H]1CCC[C@H]1CO (racemic) [Example 118, 4-[4-(6-fluoro-1H-benzimidazol-2-yl)-9H-carbazol-9-yl]-2-[2(R,S)-hydroxymethylcyclopentan-1(S,R)-amino]benzamide]
34 | < 1000 nM | NC(=O)c1ccc(-n2c3ccccc3c3c(-c4cnc5ccccc5c4)cccc32)cc1NCCc1cccnc1 [Example 107, 2-[2-(pyridin-3-yl)ethylamino]-4-[4-(quinolin-3-yl)-9H-carbazol-9-yl]benzamide]

Row | SMILES | IC50
35 | NC(=O)c1ccc(-n2c3ccccc3c3c(-c4nc5ccc(F)cc5[nH]4)cccc32)cc1N[C@@H]1CN2CCC1CC2 [Example 99, 2-{(S)-(1-azabicyclo[2.2.2]oct-3-yl)amino}-4-[4-(6-fluoro-1H-benzimidazol-2-yl)-9H-carbazol-9-yl]benzamide] | < 1000 nM

Reference: patent publication US8309721B2, “HSP90 inhibitory carbazole derivatives, compositions containing same and use thereof” (Sanofi, priority 2008, dated 2012)
